Source: the supplement of paper PMC10307832

How the values were obtained:
Experiment in all cases: relative viability (nuclei count vs DMSO), 5 days (fraction); higher = more cells survive
FG-4592 + Tozasertib = compound: Cc1nc(C(=O)NCC(=O)O)c(O)c2ccc(Oc3ccccc3)cc12 [FG-4592] + Cc1cc(Nc2cc(N3CCN(C)CC3)nc(Sc3ccc(NC(=O)C4CC4)cc3)n2)n[nH]1 [Tozasertib] (partner 0.1 µM)
In short: (§1)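 Relative viability equals treated-well nuclei counts divided by vehicle-well nuclei counts. Counts came from 4× images of lung cancer cell lines grown in 1536-well plates for 5 days after pin-tool dosing on the day after seeding. Dosing used one drug alone or a fixed anchor-drug dose plus five library-drug doses (not always all listed) in √10 steps, and values are medians of duplicate plates.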

FG-4592 + Phenformin = compound: Cc1nc(C(=O)NCC(=O)O)c(O)c2ccc(Oc3ccccc3)cc12 [FG-4592] + N=C(N)NC(=N)NCCc1ccccc1 [Phenformin] (partner 250 µM)
In short: as §1

FG-4592 + Palbociclib = compound: Cc1nc(C(=O)NCC(=O)O)c(O)c2ccc(Oc3ccccc3)cc12 [FG-4592] + CC(=O)c1c(C)c2cnc(Nc3ccc(N4CCNCC4)cn3)nc2n(C2CCCC2)c1=O [Palbociclib] (partner 0.5 µM)
In short: as §1

FG-4592 + Alpelisib = compound: Cc1nc(C(=O)NCC(=O)O)c(O)c2ccc(Oc3ccccc3)cc12 [FG-4592] + Cc1nc(NC(=O)N2CCC[C@H]2C(N)=O)sc1-c1ccnc(C(C)(C)C(F)(F)F)c1 [Alpelisib] (partner 2 µM)
In short: as §1

Cell Line | relative viability (FG-4592 + Tozasertib; first compound 0.08 µM) | relative viability (FG-4592 + Tozasertib; first compound 0.253 µM) | relative viability (FG-4592 + Tozasertib; first compound 0.8 µM) | relative viability (FG-4592 + Tozasertib; first compound 2.53 µM) | relative viability (FG-4592 + Tozasertib; first compound 8 µM) | relative viability (FG-4592 + Phenformin; first compound 0.08 µM) | relative viability (FG-4592 + Phenformin; first compound 0.253 µM) | relative viability (FG-4592 + Phenformin; first compound 0.8 µM) | relative viability (FG-4592 + Phenformin; first compound 2.53 µM) | relative viability (FG-4592 + Phenformin; first compound 8 µM) | relative viability (FG-4592 + Palbociclib; first compound 0.08 µM) | relative viability (FG-4592 + Palbociclib; first compound 0.253 µM) | relative viability (FG-4592 + Palbociclib; first compound 0.8 µM) | relative viability (FG-4592 + Palbociclib; first compound 2.53 µM) | relative viability (FG-4592 + Palbociclib; first compound 8 µM) | relative viability (FG-4592 + Alpelisib; first compound 0.08 µM) | relative viability (FG-4592 + Alpelisib; first compound 0.253 µM) | relative viability (FG-4592 + Alpelisib; first compound 0.8 µM) | relative viability (FG-4592 + Alpelisib; first compound 2.53 µM) | relative viability (FG-4592 + Alpelisib; first compound 8 µM)
LXF-289 | 0.186 | 0.16 | 0.214 | 0.177 | 0.205 | 0.518 | 0.479 | 0.527 | 0.457 | 0.51 | 0.551 | 0.563 | 0.615 | 0.588 | 0.603 | 0.974 | 0.963 | 1.06 | 1.05 | 1.09
NCI-H23 | 0.412 | 0.4 | 0.418 | 0.346 | 0.431 | 0.794 | 0.789 | 0.844 | 0.767 | 0.76 | 0.628 | 0.45 | 0.501 | 0.547 | 0.453 | 0.663 | 0.678 | 0.772 | 0.679 | 0.673
NCI-H322M | 0.469 | 0.46 | 0.442 | 0.518 | 0.396 | 0.597 | 0.716 | 0.728 | 0.715 | 0.708 | – | 0.455 | 0.444 | 0.465 | 0.483 | 0.194 | 0.797 | 0.595 | 0.941 | 0.852
NCI-H358 | 0.106 | 0.111 | 0.115 | 0.113 | 0.091 | 0.361 | 0.293 | 0.372 | 0.324 | 0.5 | 0.114 | 0.141 | 0.128 | 0.128 | 0.136 | 0.864 | 0.686 | 0.952 | 0.865 | 0.717
NCI-H441 | 0.679 | 0.521 | 0.712 | 0.619 | 0.688 | 0.876 | 0.69 | 0.928 | 0.686 | 0.848 | 0.226 | 0.214 | 0.208 | 0.226 | 0.186 | 0.849 | 0.704 | 0.853 | 0.878 | 0.519
NCI-H460 | 0.381 | 0.419 | 0.42 | 0.592 | 0.487 | 0.538 | 0.521 | 0.548 | 0.54 | 0.491 | 0.204 | 0.168 | 0.173 | 0.155 | 0.119 | 0.549 | 0.46 | 0.571 | 0.517 | 0.444
NCI-H520 | – | 0.479 | – | 0.479 | 0.391 | 0.31 | 0.595 | – | 0.51 | 0.465 | 0.15 | 0.174 | 0.192 | 0.215 | 0.162 | 0.908 | 0.972 | 0.952 | 0.93 | 0.74
NCI-H647 | 0.365 | 0.302 | 0.311 | 0.264 | 0.166 | 0.435 | 0.536 | 0.46 | 0.467 | 0.457 | 0.422 | 0.416 | 0.366 | 0.374 | 0.175 | 1.24 | 1.07 | 1.17 | 1.24 | 0.796
NCI-H650 | 0.73 | 0.703 | 0.746 | 0.691 | 0.697 | 0.393 | 0.445 | 0.406 | 0.49 | 0.437 | 0.338 | 0.264 | 0.327 | 0.321 | 0.263 | 1.03 | 1.01 | 1.04 | 0.939 | 0.881
NCI-H661 | 0.365 | 0.371 | 0.347 | 0.359 | 0.343 | 0.271 | 0.281 | 0.264 | 0.274 | 0.276 | 0.397 | 0.408 | 0.373 | 0.397 | 0.396 | 0.386 | 0.581 | 0.626 | 0.835 | 0.727
NCI-H727 | 0.608 | 0.591 | 0.757 | 0.807 | 0.678 | 0.543 | 0.341 | 0.378 | 0.643 | 0.609 | 0.674 | 0.589 | 0.575 | 0.659 | 0.626 | 0.533 | 0.582 | 0.545 | 0.56 | 0.561
NCI-H838 | 0.296 | 0.246 | 0.279 | 0.242 | 0.26 | 0.545 | 0.581 | 0.5 | 0.505 | 0.583 | 0.192 | 0.218 | 0.198 | 0.218 | 0.174 | 0.877 | 0.933 | 0.98 | 1.01 | 0.816
NCI-H1355 | 0.525 | 0.551 | 0.55 | 0.573 | 0.521 | 0.378 | 0.422 | 0.358 | 0.431 | 0.449 | 0.394 | 0.38 | – | 0.382 | 0.356 | 0.797 | 0.788 | – | 0.869 | 0.743
NCI-H1395 | 0.775 | 0.728 | 0.702 | 0.75 | 0.791 | 0.408 | 0.46 | 0.397 | 0.408 | 0.415 | 0.585 | 0.615 | 0.597 | 0.688 | 0.485 | 0.973 | 0.914 | – | 0.896 | 0.693
NCI-H1437 | 0.397 | 0.384 | 0.458 | 0.375 | 0.33 | 0.297 | 0.355 | 0.343 | 0.287 | 0.31 | 0.313 | 0.314 | 0.299 | 0.312 | 0.243 | 0.997 | 0.958 | 1.01 | 1.05 | 0.706
NCI-H1651 | 0.773 | 0.653 | 0.742 | 0.629 | 0.569 | 0.32 | 0.316 | 0.335 | 0.355 | 0.421 | 0.522 | 0.488 | 0.488 | 0.518 | 0.458 | 0.925 | 0.888 | 1.03 | 0.95 | 0.816
